Experimental findings from US20240309028A1, “PHOSPHOLIPID COMPOUNDS AND METHODS OF MAKING AND USING THE SAME” (Gilead Sciences, Inc., priority 2023, published 2024) are described below.

As a reminder, the EC50 is the concentration at which the effect is half-maximal.

Common to all, as to type: cell-based
Assay [1] concerns Respiratory syncytial virus recombinant with luciferase (RSV-Luc5). Kind of assay: NHBE RSV-Luc5 384-well assay (EC50 RSVFLUC NHBE-384). To be noted: human respiratory syncytial virus, 72 h, read-out: EC50 RSV FLUC NHBE 384 V2 (per Ex. U). The source says:
Example U. NHBE RSV-Luc5 384-Well Assay (EC50 RSVFLUC NHBE-384)
Normal Human Bronchial Epithelial (NHBE) cells were purchased from Lonza (Walkersville, MD Cat #CC2540) and maintained in BEGM Bronchial Epithelial Cell Growth Medium BulletKit (Lonza CC-3170).
Cells were thawed, expanded, and were used for experiments at passage 2. Respiratory syncytial virus recombinant with luciferase (RSV-Luc5) (≥1×107 Infectious Units/ml (IU/ml) determined by TCID50) was purchased from Microbiologics (Saint Cloud, MN). Viral replication was determined in NHBE cells in the following manner.
Compounds are prepared in 100% DMSO in 384-well polypropylene plates (Greiner, Monroe, NC, Cat #784201) with 8 compounds per plate in grouped replicates of 4 at 10 serially diluted concentrations (1:3). The serially diluted compounds were transferred to low dead volume Echo plates (Labcyte, Sunnyvale, CA, Cat #LP-0200).
The test compounds were spotted to 384-well assay plates (Greiner, Monroe, NC, Cat #781091) at 200 nL per well. NHBE cells were harvested and suspended in BEGM Bronchial Epithelial Cell Growth Medium BulletKit and seeded to the pre-spotted assay plates at 5,000 cells per well in 30 μL. RSV-Luc5 virus was diluted in BEGM Bronchial Epithelial Cell Growth Medium BulletKit at 500,000 Infectious Units (IU) per mL and 10 μL per well was added to the assay plates containing cells and compounds, for an MOI of 1. The assay plates were incubated for 3 days at 37° C. and 5% CO2. At the end of incubation, One-Glo reagent (Promega, Madison, WI, Cat #E6120) was prepared. The assay plates and One-Glo reagent were equilibrated to room temperature for at least 15 minutes. 40 μL per well of One-Glo reagent was added and the plates were incubated at room temperature for 15 minutes before reading the luminescence signal on an En Vision multimode plate reader (Perkin Elmer, Waltham, MA). Remdesivir was used as positive control and DMSO was used as negative control. Values were normalized to the positive and negative controls (as 0% and 100% replication, respectively) and data was fitted using non-linear regression analysis by Gilead's dose response tool. The EC50 value for each compound was defined as the concentration reducing the viral replication by 50%.

Assay [2] relates to Human Rhinovirus 14 (HRV14). Put plainly: H1-HeLa HRV-CTG EC50, HRV14. The following applies: Rhinovirus B, 96 h; H1-HeLa cells, HRV14, MOI 1.0, 4 days, Celltiter-Glo; read-out: EC50 H1-HeLa_HRV14_HRV-CTG 384-well Assay (per Ex Z). The source says: (§1) Example Z: H1-HeLa HRV-CTG EC50
(§2) H1-Hela cell line (ATCC, Manassas, VA, Cat #CRL-1958) was maintained in Dulbecco's […] Essential Medium (DMEM) (Corning, New York, NY, Cat #15-018 CM) supplemented with 10% fetal bovine serum (FBS) (Hyclone, Logan, UT, Cat #SH30071-03), and 1× Penicillin-Streptomycin-L-Glutamine (Corning, New York, NY, Cat #30-009-CI). Cells were passaged 2 times per week to maintain sub-confluent densities and were used for experiments at passage 5-30. The Human Rhinovirus 1B (HRVIB) (ATCC, Manassas, VA, Cat #VR-1645), Human Rhinovirus 14 (HRV14) (ATCC, Manassas, VA, Cat #VR-284), and Human Rhinovirus 16 (HRV16) (ATCC, Manassas, VA, Cat #BR-283) was obtained through ATCC. Viral infection was monitored by determining viability of H1-HeLa cells as described below.
(§3) Test molecules are prepared in 100% DMSO in 384-well polypropylene plates (Greiner, Monroe, NC, Cat #784201) with 8 compounds per plate in grouped replicates of 4 at 10 serially diluted concentrations (1:3). […]
(§4) The test compounds were spotted to 384-well assay plates (Greiner, Monroe, NC, Cat #781091) at 200 nL per well using an Echo acoustic dispenser (Labcyte, Sunnyvale, CA). […] 40 μL per well of Celltiter-Glo reagent was added and the plates were incubated at room temperature for 15 minutes before reading the luminescence signal on an En Vision multimode plate reader (Perkin Elmer, Waltham, MA). […]
(In general: ATP-based viability assays read luminescence as a measure of living cells.)

For assay [3], the system named is Human Rhinovirus 16 (HRV16). Put plainly: H1-HeLa HRV-CTG EC50, HRV16. To be noted: Rhinovirus A, 96 h; H1-HeLa cells, HRV16, MOI 0.25, 4 days, Celltiter-Glo; read-out: EC50 H1-HeLa_HRV16_HRV-CTG 384-well Assay (per Ex. Z).
Excerpt: as §1, §2, §3, §4

Regarding `N#Cc1cc(F)cc(CO[C@H](COCCCCCCCCCCCCCCCCCC(F)(F)F)COP(=O)(O)OC[C@@]2(C#N)O[C@@H](c3ccc4c(N)ncnn34)[C@H](O)[C@@H]2O)c1` [Compound 1, ((2R,3S,4R,5S)-5-(4-aminopyrrolo[2,1-f][1,2,4]triazin-7-yl)-2-cyano-3,4-dihydroxytetrahydrofuran-2-yl)methyl ((R)-2-((3-cyano-5-fluorobenzyl)oxy)-3-((18,18,18-trifluorooctadecyl)oxy)propyl) hydrogen phosphate], the EC50 stood at 26 nM in assay [1], 34 nM in assay [2] and 34 nM in assay [3].

As to `N#Cc1cc(F)cc(CO[C@H](CCCCCCCCCCCCCCCCCCC(F)(F)F)COP(=O)(O)OC[C@@]2(C#N)O[C@@H](c3ccc4c(N)ncnn34)[C@H](O)[C@@H]2O)c1` [Compound 2, ((2R,3S,4R,5S)-5-(4-aminopyrrolo[2,1-f][1,2,4]triazin-7-yl)-2-cyano-3,4-dihydroxytetrahydrofuran-2-yl)methyl ((R)-2-((3-cyano-5-fluorobenzyl)oxy)-21,21,21-trifluorohenicosyl) hydrogen phosphate], the EC50 in assay [1] was determined as 30 nM; in assay [2], 87 nM; in assay [3] it was 91 nM.
